Starred links: 1 amine or outer side, 2 acyl side, 3 side chain; linkers in the order of their positions; H or OH if unused. Non-standard residues stand in square brackets, D forms with d. Residues, ends and D or L forms follow the SMILES beside them. *: point of attachment. TtdDga = O=C(COCC(=O)[*:2])NCCCOCCOCCOCCCN[*:1]; Arachidoyl = CCCCCCCCCCCCCCCCCCCC(=O)*; NMeV = CN[CH](C(=O)O)C(C)C
Assays:
[1] = system: anti-Map antibodies in sera from bovine infected by Map; assay: Antibody ELISA with bovine sera (Map-infected versus healthy controls); format: binding; settings: for ROC analysis of ELISA antibody response, area under the curve: 60 MAP+ bovine sera and 53 control sera
[2] = system: PBMCs isolated from control cows and cows naturally infected with Map; assay: Cytokine secretion by PBMCs after 24-hour stimulation with Map lipopeptides; format: cell-based, cattle; settings: 1, 5, 10 μg/ml
Procedure: Peripheral blood mononuclear cells (PBMCs) were isolated from control non-infected (n=4) and cattle naturally infected with C-type Map (n=4) to determine if lipoproteins, L3P and L5P (structures disclosed in FIG. 9), can elicit immunological responses. Sixty ml of blood was collected via jugular venipuncture into a syringe containing 2× acid-citrate-dextrose to obtain PBMCs.
PBMCs were resuspended at a final concentration of 8×10^6/ml in complete medium consisting of RPMI-1640 with 2 mM 1-glutamine and 25 mM HEPES (Gibco, Grand Island, NY) and supplemented with 10% fetal calf serum (Gibco), 100λ penicillin-streptomycin (Gibco). Cells were plated in 24-well culture plates and incubated for 24 hr at 39° C. in 5% CO2 in a humidified atmosphere with the following treatment groups, nonstimulated (NS; negative control), pokeweed mitogen (PWM, 10 μg/ml, positive control; Sigma, St. Louis, MO), and four antigens that included whole cell sonicated extracts of Map strains K-10 and S397 (10 μg/ml); lipoproteins L3P and L5P (1, 5, 10 μg/ml concentrations). The lipoproteins had to be solubilized in 100% methanol to 1 mg/ml concentrations and then diluted in the complete medium to final concentrations indicated above. […] After a 24-hr stimulation, the supernatants were harvested by centrifugation at 400×g for 5 min. Supernatants were removed without disturbing the cells in culture and stored at −20° C. until cytokine measurement. Cytokines IFN-γ, IL-1, IL-2, IL-4, IL-6 and TNF-α were all measured using Ciraplex bovine multiplex cytokine arrays (Aushon Biosystems, Billerica, MA).

[3] = system: sera of animals infected by M. bovis; format: binding, bovine; settings: serial twofold dilution of sera
[4] = system: sheep sera naturally or experimentally infected with S-type strains of Map; assay: Antibody ELISA with sheep sera infected with S-type strains of Map; format: binding; settings: control n=15, positive n=39
[5] = system: PBMCs isolated from cows naturally infected with Map; assay: Flow cytometry of CD25+ T and B cells after PBMC stimulation with lipopeptides; format: cell-based, cattle
physchem = settings: organic solvents (DMSO, CHCl3, CH2Cl2, MeOH and EtOH)
[6] = PBMCs from infected cows, lipopeptide 1, 5, 10 μg/ml

SMILES | ROC analysis of ELISA antibody response, area under the curve ([1]; antigen in PBS) | ROC analysis of ELISA antibody response, area under the curve ([1]; antigen in ethanol) | effect of lipopeptide concentration on TNF-α secretion by PBMCs ([2]; P<0.0006) | IFN-γ cytokine response ([2]; 24-hr stimulation) | IL-1β cytokine response ([2]; 24-hr stimulation) | TNF-α cytokine response ([2]; 24-hr stimulation) | cross-reaction with sera of animals infected by M. bovis [3] | solubility in water or aqueous buffers | immunodetection of L5P by sheep sera (anti-L5P antibodies) [4] | CD25+ B cells response [5, 6] | proliferation of CD25+ CD8 T cells [5, 6] | CD25+ CD4 or CD25+ γδ T cell populations, difference between L3P and L5P ([5]; data not shown) | solubility (physchem) [µg/mL] | ELISA antibody response against the lipid moiety of L5P, discrimination of control from infected animals ([1]; lipid solubilized in ethanol, bovine sera)
CCC(C)C(NC(=O)C(C(C)C)N(C)C(=O)C(N)Cc1ccccc1)C(=O)NC(Cc1ccccc1)C(=O)NC(C)C(=O)NCCCOCCOCCOCCCNC(=O)COCC(=O)O (stereo not drawn) [L5P^H2O] (H-F[NMeV]IFA-TtdDga; configuration not given here) | 0.9453 | 0.9313 | – | – | – | – | – | – | – | – | – | – | – | –
CCCCCCCCCCCCCCCCCCCC(=O)N[C@H](Cc1ccccc1)C(=O)N(C)[C@H](C(=O)N[C@H](C(=O)N[C@@H](Cc1ccccc1)C(=O)N[C@@H](C)C(=O)OC)[C@@H](C)CC)C(C)C [L5P] (Arachidoyl-[dF][NMeV]IFA-OMe) | – | 0.97 | dose-dependent effect | elicited cytokine responses | elicited cytokine responses | elicited cytokine responses | does not cross-react | insoluble | less than half of the sheep sera do not appear to contain anti-L5P antibodies | stronger response compared to L3P | remained static | No significant differences | < 1000 | –
CCCCCCCCCCCCCCCCCCCC(=O)O [lipid moiety, eicosanoic acid] | – | – | – | – | – | – | – | – | – | – | – | – | – | does not discriminate control from infected animals
